Reference: ChEMBL document CHEMBL1136819, “Synthesis, anticholinesterase activity and structure-activity relationships of m-Aminobenzoic acid derivatives” (Bioorg Med Chem Lett, 2003)

Key:
[1] = Lethal dose was reported; assay type: ADME
[2] = biological target: T1, Acetylcholinesterase (Torpedo californica, UniProt P04058); assay: Inhibitory activity against acetylcholinesterase (AChE) from Torpedo californica (Irreversible type of inhibition); set-up: species or system Tetronarce californica
[3] = Partition coefficient (logP); assay type: physicochemical; conditions: octanol/water
[4] = biological target: T1, Acetylcholinesterase
Description: Inhibitory activity against acetylcholinesterase (AChE) from Torpedo californica (Reversible type of inhibition)

T1 sequence (P04058 whole entry): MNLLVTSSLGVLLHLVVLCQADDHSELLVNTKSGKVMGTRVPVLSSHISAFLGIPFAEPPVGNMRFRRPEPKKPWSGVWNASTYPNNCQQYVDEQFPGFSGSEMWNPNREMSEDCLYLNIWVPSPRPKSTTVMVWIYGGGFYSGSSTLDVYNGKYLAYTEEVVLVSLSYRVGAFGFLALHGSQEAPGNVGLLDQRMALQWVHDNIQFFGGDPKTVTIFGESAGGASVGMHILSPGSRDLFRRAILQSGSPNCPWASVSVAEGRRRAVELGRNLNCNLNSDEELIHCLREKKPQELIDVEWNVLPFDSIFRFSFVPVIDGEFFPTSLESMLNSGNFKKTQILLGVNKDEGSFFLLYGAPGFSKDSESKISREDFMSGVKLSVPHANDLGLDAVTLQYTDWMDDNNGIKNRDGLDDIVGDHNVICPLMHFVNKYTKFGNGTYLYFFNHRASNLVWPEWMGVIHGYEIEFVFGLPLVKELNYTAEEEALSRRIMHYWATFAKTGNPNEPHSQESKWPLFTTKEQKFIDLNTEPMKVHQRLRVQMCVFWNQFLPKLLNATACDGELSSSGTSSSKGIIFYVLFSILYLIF

## O=C(O)/C=C\C(=O)Nc1cccc(C(=O)O)c1
[1]
  LD50: > 1000 mg/kg
[2]
  IC50: 0.357 µM
[3]
  logP: 1.09

## O=C(O)c1cccc(N2C(=O)C=CC2=O)c1
[2]
  IC50: 0.256 µM
[3]
  logP: 1.48

## O=C(O)c1cccc(N2C(=O)CCC2=O)c1
[4]
  IC50: 0.0334 µM
[1]
  LD50: > 1000 mg/kg
[3]
  logP: 1.81

## O=C(O)CCC(=O)Nc1cccc(C(=O)O)c1
[4]
  IC50: 0.0925 µM
[1]
  LD50: > 1000 mg/kg
[3]
  logP: 1.41
